Measured values from the NIST ThermoML archive (doi:10.1021/je200327s).
Numbers after ± are expanded uncertainties.

Test: xn = mol fraction of the nth substance listed
Conditions: 101 kPa, Liquid, Vibrating tube method

Cc1cccc2c1sc1c(C)cccc12 [4,6-dimethyldibenzo[b,d]thiophene] + CCCCCCCCCCCC
mass density [kg/m3]
Conditions	x1 = 0.0031	x1 = 0.0053	x1 = 0.0076
298.2 K	746.102 ± 0.24	746.82 ± 0.24	747.546 ± 0.24
313.2 K	735.193 ± 0.24	735.931 ± 0.24	736.664 ± 0.24

Cc1cccc2c1sc1ccccc12 [4-methyldibenzothiophene] + CCCCCCCCCCCC
mass density [kg/m3]
Conditions	x1 = 0.0062	x1 = 0.012	x1 = 0.018	x1 = 0.0242	x1 = 0.0302	x1 = 0.0526	x1 = 0.0863	x1 = 0.133	x1 = 0.2685
298.2 K	747.197 ± 0.24	749.098 ± 0.24	751.069 ± 0.24	753.104 ± 0.25	755.131 ± 0.25	762.606 ± 0.26	774.082 ± 0.28	790.24 ± 0.32	–
313.2 K	736.26 ± 0.25	738.169 ± 0.25	740.129 ± 0.25	742.156 ± 0.25	744.204 ± 0.25	751.621 ± 0.26	763.057 ± 0.28	777.581 ± 0.32	827.245 ± 0.51

c1ccc2c(c1)sc1ccccc12 [dibenzothiophene] + C1CCCCC1
298.2 K
Conditions	mass density [kg/m3]
x1 = 0.0025	775.392 ± 0.27
x1 = 0.0045	776.667 ± 0.27
x1 = 0.0114	780.726 ± 0.27
x1 = 0.0224	787.439 ± 0.27

c1ccc2c(c1)sc1ccccc12 [dibenzothiophene] + CC(C)CC(C)(C)C
mass density [kg/m3]
Conditions	x1 = 0.0025	x1 = 0.003	x1 = 0.005	x1 = 0.0063	x1 = 0.0127	x1 = 0.0149
298.2 K	689.019 ± 0.28	–	690.292 ± 0.28	–	694.21 ± 0.28	695.329 ± 0.28
313.2 K	676.548 ± 0.29	676.845 ± 0.29	677.841 ± 0.29	678.505 ± 0.29	–	683.13 ± 0.28

c1ccc2c(c1)sc1ccccc12 [dibenzothiophene] + CCCCC
298.2 K
Conditions	mass density [kg/m3]
x1 = 0.0042	624.932 ± 0.3
x1 = 0.0077	627.957 ± 0.3
x1 = 0.0112	630.962 ± 0.3
x1 = 0.0158	634.865 ± 0.3

c1ccc2c(c1)sc1ccccc12 [dibenzothiophene] + CCCCCC
298.2 K
Conditions	mass density [kg/m3]
x1 = 0.0097	661.714 ± 2.1
x1 = 0.0147	665.156 ± 2.1
x1 = 0.0174	667.026 ± 2.1

c1ccc2c(c1)sc1ccccc12 [dibenzothiophene] + CCCCCCC
298.2 K
Conditions	mass density [kg/m3]
x1 = 0.0056	683.108 ± 0.36
x1 = 0.0119	686.774 ± 0.36
x1 = 0.0176	690.099 ± 0.36
x1 = 0.0218	692.551 ± 0.36

c1ccc2c(c1)sc1ccccc12 [dibenzothiophene] + CCCCCCCC
mass density [kg/m3]
Conditions	x1 = 0.0026	x1 = 0.0049	x1 = 0.0063	x1 = 0.0127	x1 = 0.0187	x1 = 0.0252
298.2 K	699.866 ± 1.4	701.048 ± 1.4	701.696 ± 1.4	704.954 ± 1.4	707.967 ± 1.4	711.182 ± 1.4
313.2 K	687.657 ± 1.3	688.882 ± 1.3	689.525 ± 1.3	692.813 ± 1.3	695.851 ± 1.3	699.1 ± 1.4

c1ccc2c(c1)sc1ccccc12 [dibenzothiophene] + CCCCCCCCC
mass density [kg/m3]
Conditions	x1 = 0.0032	x1 = 0.0057	x1 = 0.0072	x1 = 0.0147	x1 = 0.0216	x1 = 0.0287	x1 = 0.0343
298.2 K	715.374 ± 0.35	716.447 ± 0.35	717.097 ± 0.35	720.427 ± 0.35	723.475 ± 0.35	726.668 ± 0.35	729.068 ± 0.36
313.2 K	703.613 ± 0.35	704.689 ± 0.35	705.41 ± 0.35	708.85 ± 0.35	711.795 ± 0.36	715.175 ± 0.36	717.135 ± 0.36

c1ccc2c(c1)sc1ccccc12 [dibenzothiophene] + CCCCCCCCCC
mass density [kg/m3]
Conditions	x1 = 0.0034	x1 = 0.0061	x1 = 0.0082	x1 = 0.0162	x1 = 0.0259	x1 = 0.0314
298.2 K	727.461 ± 0.35	728.541 ± 0.35	729.331 ± 0.35	732.459 ± 0.35	736.262 ± 0.35	738.412 ± 0.35
313.2 K	716.064 ± 0.35	717.143 ± 0.35	717.957 ± 0.35	721.088 ± 0.35	724.901 ± 0.35	727.044 ± 0.36
